Like-named read-outs stand apart in the source and are kept apart here.
Experiments:
Type in all cases: cell-based
[1] = tested on: Saccharomyces cerevisiae S288C yeast cells; experiment: label-free DRCA multi-wavelength SPR yeast cell assay (response to a substance); conditions: 10 micromolar; for effect on yeast cell growth measured at short penetration depth: 660 nm laser source; for effect on yeast cell growth measured at short penetration depth / effect on yeast cell growth: FIG. 4; for effect on yeast cell growth: 4,000 cells per well, pre-incubated 60 minutes; for effect on yeast cell growth compared with the other modulators: consistent at three different penetration depths, versus fluconazole and ketaconazole
Experimental: Yeast cells were cultured on an YPD agar plate at 28° C. for 16 hours and kept at 4° C. until just prior to use. From the agar plate, yeast cells were collected and seeded into YPD liquid medium and cultured at 28° C. for 8 hours. The cells were then diluted with its liquid medium to obtain a cell density of about 4,000 cells/mL as a starting point for cell inhibition studies. For the detection of yeast cells, the cells were collected at the late logarithm phase and collected by centrifugation at 10,000 g for 10 minutes. Cells were further washed to remove debris and/or high index material such as glucose.
A DRCA™ system equipped with three lasers having wavelengths of, for example, 660 nm, 980 nm, and 1480 nm, was selected for the study. The system allows for simultaneously measuring a cell at three different wavelengths. The output measures the angular change of the surface plasmon resonance (SPR). The angular change indicates a mass change within the defined sensing region. The depth of the sensing region depends on the wavelength of the selected illuminating laser as listed, for example, in Table 1.
A user-assembled assay plate was first assembled with a gold coated glass slide and an 80-well holey plate (cut from a 384-well holey plate). Yeast cells were seeded into the wells with or without a compound and incubated in the instrument for approximately 60 minutes at 22° C. The cell responses were then measured and data were collected according to the description in the aforementioned U.S. Ser. No. 12/956,464.
A procedure for accomplishing a label-free rigid cell assay response to a substance in accord with the present disclosure can include, for example: • 1. clean and assemble an 80-well holey plate on top of a gold chip; • 2. sterile the assembled chip by exposure to high intensity UV light for around 5 minutes; • 3. grow yeast cells until the middle or late logarithm stage, preferably the former for an active inoculum; • 4. turn on the DRCA optical system to warm-up the lasers for, e.g., 1 hour; • 5. collect yeast cell by centrifugation at, e.g., 10,000 g for 10 minutes; • 6. wash the cells with at least 5× fold volume of the pellet using a saline buffer, such as phosphate saline buffer; • 7. vortex the cell solution using, for example, a bench top vortex mixer; • 8. collect yeast cells by centrifugation at e.g. 10,000 g for 10 minutes; • 9. repeat steps 6 to 8 for approximately three (3) times to remove high refractive index materials, such as, sugar residues, cell debris, or like materials, and mixtures thereof; • 10. count yeast cell number using, e.g., a hemocytometer • 11. prepare assay buffer with or without a substance (compound/bio-molecule); • 12. load assay buffer with or without a substance (compound/bio-molecule) to each well of the cell chamber and let it equilibrate for, e.g., 60 minutes; • 13. record the baselines for, e.g., 15 minutes; • 14. add a small amount of yeast cells, such as 4000 cells/mL to each well; • 15. monitor the yeast cell response, for example, to an added substance, with a plurality of wavelengths and depths; • 16. record the data; and • 17. analyze the data by calculating the difference between the end points and baselines.
Four modulator compounds were used to study of their effect on yeast cells. A user assembled (i.e., a virtual) assay plate was seeded with 4,000 cells per well. A modulator was added to a test well at 10 micromolar and then pre-incubated for 60 minutes. Each modulator was tested in three replicates. The well without a modulator was a positive control. […] However, the difference between the modulators and controls was more substantial when measured at the longest penetration depth using the 1480 nm laser source. […] Accordingly, the disclosed method can be useful for drug screening, drug development, and like applications.
Time course of a modulator effect. The effect of an amphotericin compound on yeast cells was monitored in real time under ambient condition. […]

[2] = tested on: Saccharomyces cerevisiae S288C yeast cells; experiment: as above
[3] = tested on: Saccharomyces cerevisiae S288C yeast cells; experiment: yeast cell count by hemocytometer of DRCA assay samples; conditions: with amphotericin treatment; FIG. 8; untreated sample about 12,000,000 cells
Excerpt: (§1) The samples from the aforementioned DRCA assay were further analyzed with a spectrophotometer (Agilent Technologies, Wilmington, Del.) and hemocytometer (Thermo Fisher Scientific, Hudson, N.H.). […] With amphotericin treatment, the cell number was about zero, compared to about 12,000,000 cells in the untreated sample, see FIG. 8 (yeast cell count by hemocytometer) for amphotericin (80) and no amphotericin (82) at each of three wavelengths.

[4] = tested on: Saccharomyces cerevisiae S288C yeast cells; experiment: turbidometric determination with a visible light spectrophotometer (absorbance OD580) of DRCA assay samples; conditions: 10 micromolar, FIG. 7
Excerpt: FIG. 7 charts absorbance readings of a conventional turbidometric determination using a visible light spectrophotometer, for cultured yeast cells without amphotericin (left; amphotericin at 0 micromolar) and contacted with amphotericin (right; amphotericin at 10 micromolar). Turbidity can be used as an indirect measure of cell growth. Using a standard curve generated with serial dilutions of known number cells, one can estimate cell density in a turbid cell culture.
as §1

SMILES | effect on yeast cell growth measured at short penetration depth [1] | effect on yeast cell growth [1] | IC50 ([2]; read-out: IC50 (inhibition curve, yeast cells), 660 nm wavelength, about 4000 cells/well, 3,000 nM serially diluted at 3 fold, R^2=0.9072) [nM] | IC50 ([2]; read-out: IC50 (inhibition curve, yeast cells), 980 nm wavelength, about 4000 cells/well, 3,000 nM serially diluted at 3 fold, R^2=0.9486) [nM] | IC50 ([2]; read-out: IC50 (inhibition curve, yeast cells), 1480 nm wavelength, about 4000 cells/well, 3,000 nM serially diluted at 3 fold, R^2=0.9817) [nM] | cell number [3] | change in response over time (time course) ([1]; about 16 hours, any given penetration depth (660, 980, 1480 nm), FIG. 5) | effect on yeast cell growth compared with the other modulators [1] | cell growth by turbidity [4] | OD580 absorbance reading ([4]; untreated sample about 12)
OC(Cn1cncn1)(Cn1cncn1)c1ccc(F)cc1F [fluconazole] | not detectable | had an effect on yeast cell growth |  |  |  |  |  |  |  | 
C[C@@H]1[C@H](O)[C@@H](C)/C=C/C=C/C=C/C=C/C=C/C=C/C=C/[C@H](O[C@@H]2O[C@H](C)[C@@H](O)[C@H](N)[C@@H]2O)C[C@@H]2O[C@](O)(C[C@@H](O)C[C@@H](O)[C@H](O)CC[C@@H](O)C[C@@H](O)CC(=O)O[C@H]1C)C[C@H](O)[C@H]2C(=O)O [amphotericin, Amphotericin] |  | had an effect on yeast cell growth | 374 | 271 | 158 | about zero | almost no change in response | more noticeable effect | cell growth was inhibited | about zero
CC(=O)N1CCN(c2ccc(OCC3COC(Cn4ccnc4)(c4ccc(Cl)cc4Cl)O3)cc2)CC1 (stereo not drawn) [ketaconazole] | not detectable | had an effect on yeast cell growth |  |  |  |  |  |  |  | 
Clc1ccccc1C(c1ccccc1)(c1ccccc1)n1ccnc1 [clotrimazole] |  | had an effect on yeast cell growth |  |  |  |  |  | more noticeable effect |  | 
